According to BindingDB's records for doi:10.1016/0960-894X(95)00530-0 (1995):

Molecular target: Gastrin/cholecystokinin type B receptor (Cavia porcellus)
Experiment: Displacement of [125I]-BH CCK-8S from Cholecystokinin type B receptor in guinea pig cortex

Row | IC50 [nM] | Structure (SMILES)
1 | 880 | Cc1cccc(NC(=O)NC2N=C(N3CCNCC3)c3ccccc3N(C)C2=O)c1 (centres undefined) [1-(1-Methyl-2-oxo-5-piperazin-1-yl-2,3-dihydro-1H-benzo[e][1,4]diazepin-3-yl)-3-m-tolyl-urea]
2 | > 3000 | Cc1cccc(NC(=O)NC2N=C(N3CCN(C(=O)OC(C)(C)C)CC3)c3ccccc3N(C)C2=O)c1 (centres undefined) [4-[1-Methyl-2-oxo-3-(3-m-tolyl-ureido)-2,3-dihydro-1H-benzo[e][1,4]diazepin-5-yl]-piperazine-1-carboxylic acid tert-butyl ester]
3 | 12 | CCCN1C(=O)C(NC(=O)Nc2cccc(C(F)(F)F)c2)N=C(N2CCN(C)CC2)c2ccccc21 (centres undefined) [1-[5-(4-Methyl-piperazin-1-yl)-2-oxo-1-propyl-2,3-dihydro-1H-benzo[e][1,4]diazepin-3-yl]-3-(3-trifluoromethyl-phenyl)-urea]

Row | Structure (SMILES) | IC50 [nM]
4 | Cc1cccc(NC(=O)N[C@@H]2N=C(c3ccccc3)c3ccccc3N3C[C@H](C)N=C23)c1 [1-((2S,4R)-2-Methyl-6-phenyl-2,4-dihydro-1H-3,5,10b-triaza-benzo[e]azulen-4-yl)-3-m-tolyl-urea] | 1.8
